From ChEMBL document CHEMBL4261502, “Histone lysine methyltransferase structure activity relationships that allow for segregation of G9a inhibition and anti-Plasmodium activity” (Medchemcomm, 2017)
pIC50: −log10 of the molar value.

Tested on: Plasmodium falciparum
Assay: Antiplasmodial activity against Plasmodium falciparum 3D7 after 3 days by SYBR green1 dye based assay
Type: functional, organism-based
Settings: 3D7, 72 h

| Compound | pIC50 |
| --- | --- |
| COc1cc2c(NC3CCN(C)CC3)nc(N3CCCN(C)CC3)nc2cc1OCCCN1CCCC1 | < 5.70 |
| COc1cc2c(NC3CCN(C)CC3)nc(N3CCCN(C)CC3)nc2cc1OCCCN1CCCCC1 | < 5.70 |
| COc1cc2c(NC3CCN(C)CC3)nc(N3CCCN(C)CC3)nc2cc1OCCN(C)C | < 5.70 |
| COc1cc2c(NC3CCN(C)CC3)nc(N3CCCN(C)CC3)nc2cc1OCCCN(C)C | < 5.70 |
| COc1cc2c(NC3CCN(C)CC3)nc(N3CCCN(C)CC3)nc2cc1OCc1ccccc1 | 7.37 |
| COc1cc2nc(N3CCCN(C)CC3)nc(NC3CCN(Cc4ccccc4)CC3)c2cc1OC | 7.37 |
| COc1cc2nc(N3CCCN(C)CC3)nc(NC3CCN(C)CC3)c2cc1OC | < 6.52 |
| COc1cc2nc(N3CCN(C)CC3)nc(NC3CCN(C)CC3)c2cc1OC | < 6.52 |
